Laboratory results taken from ChEMBL document CHEMBL4602733 (J Med Chem, 2020).

What was measured:
[1] = target: T1, Histamine H3 receptor (Homo sapiens, UniProt Q9Y5N1); set-up: species or system Sf9
[2] = species on record: Homo sapiens; set-up: reference not given here
[3] = Drug uptake in wild-type HEK293T cells at 200 nM measured after 20 mins by confocal microscopic analysis; assay type: ADME, cell-based; details: human, hek-293t, 0.2 µM
[4] = target: T1, Histamine H3 receptor; assay: Binding affinity to human recombinant NLuc/GPCR-fused H3R expressed in HEK293T cells assessed as dissociation constant measured after 30 mins in presence of thioperamide by furimazine substrate based BRET assay; assay type: cell-based, HEK-293T
[5] = target: Histamine H1 receptor (Homo sapiens, UniProt P35367); assay: Displacement of [3H]pyrilamine from human recombinant H1R expressed in baculovirus infected Sf9 insect cell membranes co-expressing RGS4
[6] = Chemical stability of the compound in pH 7.4 phosphate buffered saline at 200 uM incubated for 5 to 6 hrs in white 96-well cellGrade plates by RP-HPLC method; assay type: physicochemical; details: buffer, pH 7.4, 200 µM
[7] = target: T1, Histamine H3 receptor; assay: Binding affinity to human recombinant NLuc/GPCR-fused H3R expressed in HEK293T cells assessed as association rate constant measured after 30 mins by furimazine substrate based BRET assay; assay type: cell-based; details: HEK-293T
[8] = Chemical stability of the compound in pH 7.4 phosphate buffered saline at 200 uM incubated for >= 1 hr in Sigmacote-treated 1.5 mL microtubes by RP-HPLC method; assay type: physicochemical; details: buffer, pH 7.4, 1 h
[9] = Chemical stability of the compound in pH 7.4 phosphate buffered saline at 200 uM incubated for 5 to 6 hrs in 96-well Primaria plates by RP-HPLC method; assay type: physicochemical; details: buffer, pH 7.4, 200 µM
[10] = Chemical stability of the compound in pH 7.4 phosphate buffered saline at 200 uM incubated for >= 1 hr in 1.5 mL microtubes by RP-HPLC method; assay type: physicochemical; details: buffer, pH 7.4, 1 h
[11] = target: T1, Histamine H3 receptor; assay: Agonist activity at human H3R expressed in HEK293T-SP-FLAG-hH3R-CRE-CBR cells incubated for 5 hrs by luciferase reporter gene assay; assay type: functional, cell-based
[12] = target: T1, Histamine H3 receptor; assay: Binding affinity to human recombinant NLuc/GPCR-fused H3R expressed in HEK293T cells assessed as dissociation half life measured after 30 mins in presence of thioperamide by furimazine substrate based BRET assay; assay type: cell-based; details: HEK-293T
[13] = target: T1, Histamine H3 receptor; assay: Binding affinity to human recombinant NLuc/GPCR-fused H3R expressed in HEK293T cells assessed as dissociation rate constant measured after 30 mins in presence of thioperamide by furimazine substrate based BRET assay; assay type: cell-based; details: HEK-293T
[14] = target: T1, Histamine H3 receptor; assay: Binding affinity to human recombinant NLuc/GPCR-fused H3R expressed in HEK293T cells measured after 30 mins by furimazine substrate based BRET assay; assay type: cell-based, HEK-293T
[15] = target: T2, Histamine H4 receptor (Homo sapiens, UniProt Q9H3N8); set-up: species or system Sf9
[16] = target: T1, Histamine H3 receptor; set-up: species or system Sf9; remark: listed apart in the source
[17] = target: T1, Histamine H3 receptor; set-up: species or system Sf9; remark: listed apart in the source
[18] = target: T1, Histamine H3 receptor; assay: Inhibition of UR-DEBa242 binding to human recombinant NLuc/GPCR-fused H3R expressed in HEK293T cells measured after 30 mins by furimazine substrate based BRET assay; assay type: cell-based, HEK-293T
[19] = target: T3, Histamine H4 receptor (Mus musculus, UniProt Q91ZY2); assay: Displacement of UR-DEBa176 from mouse recombinant H4R expressed in HEK293T-SF-His6-CRE-Luc cells; assay type: cell-based
T3 sequence (Q91ZY2 whole entry): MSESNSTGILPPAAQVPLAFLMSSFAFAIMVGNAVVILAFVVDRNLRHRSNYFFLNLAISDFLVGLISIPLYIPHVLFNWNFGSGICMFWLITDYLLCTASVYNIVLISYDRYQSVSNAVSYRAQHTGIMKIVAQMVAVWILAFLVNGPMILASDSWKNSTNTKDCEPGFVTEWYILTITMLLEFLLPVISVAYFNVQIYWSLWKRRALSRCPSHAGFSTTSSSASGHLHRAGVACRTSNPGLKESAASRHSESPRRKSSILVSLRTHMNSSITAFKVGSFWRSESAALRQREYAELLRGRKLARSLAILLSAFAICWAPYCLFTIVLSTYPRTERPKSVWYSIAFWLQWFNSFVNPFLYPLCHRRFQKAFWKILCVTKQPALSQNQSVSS

[20] = target: T3, Histamine H4 receptor; assay: Antagonist activity at mouse H4R expressed in HEK293 cells co-expressing ELucC/ELucN-beta-arrestin2 assessed as inhibition of histamine-induced beta-arrestin recruitment preincubated for 15 mins followed by histamine addition by luciferase reporter gene assay; assay type: cell-based
[21] = target: T3, Histamine H4 receptor; assay: Inhibition of UR-DEBa242 binding to mouse recombinant NLuc/GPCR-fused H4R expressed in HEK293T cells measured after 30 mins by furimazine substrate based BRET assay; assay type: cell-based, HEK-293T
[22] = target: T2, Histamine H4 receptor; set-up: species or system Sf9; remark: listed apart in the source
[23] = target: T1, Histamine H3 receptor; assay: Antagonist activity at human H3R expressed in HEK293T-SP-FLAG-hH3R-CRE-CBR cells assessed as reduction in histamine-induced inhibition of forskolin stimulated luciferase activity preincubated for 15 mins followed by forskolin and histamine addition by luciferase reporter gene assay; assay type: functional, cell-based
[24] = target: T2, Histamine H4 receptor
[25] = target: T2, Histamine H4 receptor; assay: Inhibition of UR-DEBa242 binding to human recombinant NLuc/GPCR-fused H4R expressed in HEK293T cells measured after 30 mins by furimazine substrate based BRET assay; assay type: cell-based, HEK-293T

T1 sequence (Q9Y5N1 whole entry): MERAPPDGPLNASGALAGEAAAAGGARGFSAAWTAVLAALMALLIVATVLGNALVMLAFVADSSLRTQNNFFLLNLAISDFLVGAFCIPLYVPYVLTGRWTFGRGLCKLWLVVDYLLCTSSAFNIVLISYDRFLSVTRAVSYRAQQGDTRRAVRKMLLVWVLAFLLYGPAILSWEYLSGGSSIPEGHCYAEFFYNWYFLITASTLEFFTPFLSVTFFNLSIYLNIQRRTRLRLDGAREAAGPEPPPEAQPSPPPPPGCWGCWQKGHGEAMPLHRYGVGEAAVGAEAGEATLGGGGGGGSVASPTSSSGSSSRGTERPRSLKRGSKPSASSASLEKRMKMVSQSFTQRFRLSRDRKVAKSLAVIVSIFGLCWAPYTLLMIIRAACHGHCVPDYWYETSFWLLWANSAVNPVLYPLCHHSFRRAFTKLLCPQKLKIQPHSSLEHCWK
T2 sequence (Q9H3N8 whole entry): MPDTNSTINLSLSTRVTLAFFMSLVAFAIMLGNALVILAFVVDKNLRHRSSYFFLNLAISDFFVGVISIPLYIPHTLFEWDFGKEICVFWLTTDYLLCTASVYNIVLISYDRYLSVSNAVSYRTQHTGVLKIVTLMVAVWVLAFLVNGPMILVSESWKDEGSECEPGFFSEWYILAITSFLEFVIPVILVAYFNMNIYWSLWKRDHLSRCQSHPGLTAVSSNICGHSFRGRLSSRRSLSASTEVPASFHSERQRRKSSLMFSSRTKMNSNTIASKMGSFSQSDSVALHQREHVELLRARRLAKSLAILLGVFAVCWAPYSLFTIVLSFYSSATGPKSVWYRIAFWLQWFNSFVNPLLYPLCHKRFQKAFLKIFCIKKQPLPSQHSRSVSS
Sequence of Histamine H1 receptor (P35367 whole entry): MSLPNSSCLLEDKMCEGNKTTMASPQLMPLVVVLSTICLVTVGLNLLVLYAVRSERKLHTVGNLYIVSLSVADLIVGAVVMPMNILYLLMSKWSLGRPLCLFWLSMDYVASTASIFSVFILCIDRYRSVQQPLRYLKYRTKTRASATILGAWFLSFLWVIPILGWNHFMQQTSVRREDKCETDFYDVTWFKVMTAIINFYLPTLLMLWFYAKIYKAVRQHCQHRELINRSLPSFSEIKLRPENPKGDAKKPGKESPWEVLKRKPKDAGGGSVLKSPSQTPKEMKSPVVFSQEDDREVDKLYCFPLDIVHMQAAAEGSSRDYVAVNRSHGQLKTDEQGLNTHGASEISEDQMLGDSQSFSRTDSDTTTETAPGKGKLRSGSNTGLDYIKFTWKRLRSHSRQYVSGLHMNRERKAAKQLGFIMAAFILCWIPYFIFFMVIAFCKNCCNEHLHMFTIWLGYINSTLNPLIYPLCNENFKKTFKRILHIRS

Work on `Cc1cc(/C=C/C=C/c2ccc(N(C)C)cc2)cc(C)[n+]1CCCN1CCc2nc[nH]c2C1` yielded a Ki [1] of 0.457 µM.

Work on `Cc1cc(/C=C/C=C/c2ccc(N(C)C)cc2)cc(C)[n+]1CCCc1c[nH]cn1` yielded a Ki [1] of 0.0117 µM.

`NCCCCc1c[nH]cn1` showed a Ratio Ki [2] of 2.95.

For `Cc1cc(/C=C/C=C/c2ccc(N(C)C)cc2)cc(C)[n+]1CCCCc1c[nH]cn1.O=C(O)C(F)(F)F.O=C([O-])C(F)(F)F`, the Drug uptake [3] was “Active”, the Kd ([4]; read-out: Kd) was 0.00254 to 0.00686 µM and the Kd ([4]; read-out: pKd (converted)) was 0.00468 µM. The Ki [5] was greater than 4.79 µM, the Stability [6] was “Stable” and the Ki [1] was 0.00251 µM. The K [7] was 1.06e+07 M⁻¹ s⁻¹, the Stability [8] was “Unstable” and the Stability [9] was “Stable”. For the same compound, the Stability [10] was “Unstable”, the EC50 [11] was 0.0017 µM and the T1/2 [12] was 15 s. It also gave a K [13] of 2.79 min⁻¹, a Kd ([14]; read-out: Kd) of 0.00135 to 0.00194 µM and a Kd ([14]; read-out: pKd (converted)) of 0.00166 µM.

For `Cc1cc(OCCC[n+]2c(C)cc(/C=C/c3cc4c5c(c3)CCCN5CCC4)cc2C)ccc1-c1nc2c(C)c(F)ccc2[nH]1`, the Ki [1] was 20.4 µM and the Ki [15] was 28.2 µM.

Work on `Cc1cc(OCCCNC(=O)CCCCCNC(=O)COc2ccc(/C=C/C3=[N+]4C(=Cc5ccc(-c6ccc[nH]6)n5[B-]4(F)F)C=C3)cc2)ccc1-c1nc2c(C)c(F)ccc2[nH]1` yielded a Ki [1] of 0.501 µM and a Ki [15] of 1.82 µM.

Compound `NCCCc1c[nH]cn1` has a Ki [16] of 0.0933 µM and a Ratio Ki [2] of 0.34.

With `CC(C)(C)CNc1nccc(N2CCc3nc[nH]c3C2)n1` the Ki [17] was 0.00316 µM and the Ki [18] was 0.000537 µM.

`Cc1cc(/C=C/C=C/c2ccc(N(C)C)cc2)cc(C)[n+]1CCCNCCc1c[nH]cn1` gave a Ki [1] of 0.0135 µM, a Ki [15] of 0.933 µM and a Ratio Ki [2] of 69.2.

For `S=C(NC1CCCCC1)N1CCC(c2cnc[nH]2)CC1` [THIOPERAMIDE], the Ki [19] was 0.0794 µM, the EC50 [20] was 0.0282 µM and the Ki [21] was 0.0661 µM.

Compound `NCCCCCc1c[nH]cn1` has a Ki [22] of 0.631 µM, a Ki [16] of 0.0372 µM and a Ratio Ki [2] of 17.

Work on `Cc1cc(/C=C/C=C/c2ccc(N(C)C)cc2)cc(C)[n+]1CCCCCc1c[nH]cn1` yielded a Ki [5] greater than 4.79 µM, a pK [23] of 8.71 and a Ki [1] of 0.000912 µM. The Kd ([14]; read-out: Kd) was 0.00097 µM and the Kd ([14]; read-out: pKd (converted)) was 0.00115 µM.

With `Cc1cc(/C=C/C=C/c2ccc(N(C)C)cc2)cc(C)[n+]1CCc1c[nH]cn1` the Ki [1] was 0.851 µM, the Ki [15] was 1.95 µM and the Ratio Ki [2] was 2.29.

With `NC(=NCc1ccc(Cl)cc1)SCCCc1cnc[nH]1` [CLOBENPROPIT] the Ki [24] was 0.0398 µM, the Ki [19] was 0.158 µM and the Ki [25] was 0.0776 µM. For the same compound, the Ki [21] was 0.123 µM.

Compound `Cc1cc(OCCCNC(=O)CCCCCN2\C(=C/C=C/C=C/C3=[N+](CCCCS(=O)(=O)[O-])c4ccccc4C3(C)C)C(C)(C)c3ccccc32)ccc1-c1nc2c(C)c(F)ccc2[nH]1` has a Ki [1] of 2.4 µM.

`Cc1cc(OCCC[n+]2c(C)cc(/C=C/C=C/c3ccc(N(C)C)cc3)cc2C)ccc1-c1nc2c(C)c(F)ccc2[nH]1` showed a Ki [1] of 1.62 µM.
